Columns and labels:
Format in all cases: functional
Rattus norvegicus [1] = experiment: Anti-inflammatory activity against carageenaan-induced paw edema in Rattus norvegicus albino (rat) at 100 mg/kg, po administered 1 hr prior to carageenaan-challenge measured up to 3 hr
Rattus norvegicus [2] = experiment: Anti-inflammatory activity in Rattus norvegicus albino (rat) assessed as carageenaan-induced paw edema at 100 mg/kg, po administered 1 hr prior to carageenaan-challenge measured at 180 min relative to control (reference value: 22.3%)
Rattus norvegicus [3] = experiment: Anti-inflammatory activity in Rattus norvegicus albino (rat) assessed as carageenaan-induced paw edema at 100 mg/kg, po administered 1 hr prior to carageenaan-challenge measured at 30 min relative to control (reference value: 30.1%)
Rattus norvegicus [4] = experiment: Anti-inflammatory activity in Rattus norvegicus albino (rat) assessed as carageenaan-induced paw edema at 100 mg/kg, po administered 1 hr prior to carageenaan-challenge measured at 90 min relative to control (reference value: 38.7%)
Rattus norvegicus [5] = experiment: Anti-inflammatory activity in Rattus norvegicus albino (rat) assessed as carageenaan-induced paw edema at 100 mg/kg, po administered 1 hr prior to carageenaan-challenge measured at 30 min (reference value: 100%)
Rattus norvegicus [6] = experiment: Anti-inflammatory activity in Rattus norvegicus albino (rat) assessed as carageenaan-induced paw edema at 100 mg/kg, po administered 1 hr prior to carageenaan-challenge measured at 90 min (reference value: 100%)
Rattus norvegicus [7] = experiment: Anti-inflammatory activity in Rattus norvegicus albino (rat) assessed as carageenaan-induced paw edema at 100 mg/kg, po administered 1 hr prior to carageenaan-challenge measured at 120 min (reference value: 100%)

`Cc1n[nH]c2nnc3nc(CCC(=O)O)[nH]c3c12` gave an Activity (Rattus norvegicus [1]) of 33%, an Activity (Rattus norvegicus [2]) of 21.4% and an Activity (Rattus norvegicus [3]) of 6.5%. The Activity (Rattus norvegicus [4]) was 18.4%.

Compound `CC(C)Cc1ccc(C(C)C(=O)O)cc1` (centres undefined) [IBUPROFEN] has an Activity (Rattus norvegicus [1]) of 49%, an Activity (Rattus norvegicus [5]) of 101% and an Activity (Rattus norvegicus [6]) of 108%. For the same compound, the Activity (Rattus norvegicus [7]) was 11.6%.

`Cc1n[nH]c2nnc3nc(-c4ccccc4C(=O)O)[nH]c3c12` was tested, and the Activity (Rattus norvegicus [1]) was 41%, the Activity (Rattus norvegicus [2]) was 20.6% and the Activity (Rattus norvegicus [3]) was 15.1%. For the same compound, the Activity (Rattus norvegicus [4]) was 23.3%.

Work on `Cc1n[nH]c2nnc3nc(CCCCC(=O)O)[nH]c3c12` yielded an Activity (Rattus norvegicus [1]) of 31%, an Activity (Rattus norvegicus [2]) of 33.6% and an Activity (Rattus norvegicus [3]) of 33.9%. For the same compound, the Activity (Rattus norvegicus [4]) was 46.5%.

Compound `Cc1n[nH]c2nnc3nc(-c4ccccc4)[nH]c3c12` has an Activity (Rattus norvegicus [1]) of 30%, an Activity (Rattus norvegicus [2]) of 14.9% and an Activity (Rattus norvegicus [3]) of 14.1%. The Activity (Rattus norvegicus [4]) was 23.4%.

`Cc1n[nH]c2nnc3nc(/C=C\c4ccccc4)[nH]c3c12` was tested, and the Activity (Rattus norvegicus [1]) was 35%, the Activity (Rattus norvegicus [2]) was 0.4% and the Activity (Rattus norvegicus [3]) was 3.9%. The Activity (Rattus norvegicus [4]) was 6.2%.
